Assay results taken from patent publication US9334246B2, “Substituted triazines for malaria treatment and chemoprophylaxis” (The United States of America, as represented by the …, priority 2013, dated 2016).
In brackets after ≈: the same amount, converted by molar mass.

Key:
Format in all cases: cell-based, Plasmodium falciparum
P. falciparum D6 = test: Malaria SYBR Green Fluorescence Assay, D6 strain
P. falciparum W2 = test: Malaria SYBR Green Fluorescence Assay, W2 strain
P. falciparum C235 = test: Malaria SYBR Green Fluorescence Assay, C235 strain
[1] = Plasmodium falciparum, SYBR Green Assay

Compound	D6 (P. falciparum D6; SYBR Green Assay)	W2 (P. falciparum W2; SYBR Green Assay)	C235 (P. falciparum C235; SYBR Green Assay)	D6 (SYBR Green Assay IC50) (P. falciparum D6)	W2 (SYBR Green Assay IC50) (P. falciparum W2)	C235 (SYBR Green Assay IC50) (P. falciparum C235)	also measured
CCN1CCCC(Nc2nc(-c3ccc(SC)cc3)nc(C(Cl)(Cl)Cl)n2)C1 (stereo not drawn) [Cmpd 88]	79 ng/mL	69 ng/mL	77 ng/mL	–	–	–	–
CN1CCN(c2nc(-c3cccc(Cl)c3)nc(C(Cl)(Cl)Cl)n2)CC1 [Cmpd 436]	–	–	–	0.155 µg/mL	0.019 µg/mL	0.158 µg/mL	–
COc1ccc(-c2nc(N3CCCNCC3)nc(C(Cl)(Cl)Cl)n2)cc1 [Cmpd 101]	182 ng/mL	117 ng/mL	158 ng/mL	–	–	–	–
CC(C)CN1CCC(CC1)NC1═NC(═NC(═N1)C1═CC═CC═C1)C(Cl)(Cl)Cl [Compound 704]	867 ng/mL	223 ng/mL	525 ng/mL	–	–	–	–
ClC(Cl)(Cl)c1nc(Nc2ccc(cc2)n3cccn3)nc(n1)C(Cl)(Cl)Cl [Compound 732]	386 ng/mL	160 ng/mL	584 ng/mL	–	–	–	–
CN(Cc1ccccc1-c1cccnc1)c1nc(-c2ccc(S(C)(=O)=O)cc2)nc(C(Cl)(Cl)Cl)n1 [Cmpd 129]	170 ng/mL	102 ng/mL	233 ng/mL	–	–	–	–
OCCN1CCCN(c2nc(-c3ccc(Cl)c(Cl)c3)nc(C(Cl)(Cl)Cl)n2)CC1 [Cmpd 454]	–	–	–	0.252 µg/mL	0.064 µg/mL	0.118 µg/mL	–
CCN1CCC(CNc2nc(-c3cccc(Cl)c3)nc(C(Cl)(Cl)Cl)n2)CC1 [Cmpd 339]	34 ng/mL	14 ng/mL	41 ng/mL	–	–	–	–
FC(F)(F)c1cccc(-c2nc(NCCc3ccccn3)nc(C(Cl)(Cl)Cl)n2)c1 [Cmpd 186]	494 ng/mL	115 ng/mL	499 ng/mL	–	–	–	–
NC1(CNc2nc(-c3ccc(Cl)cc3)nc(C(Cl)(Cl)Cl)n2)CC1 [Compound 678, NC1(CNC2═NC(═NC(═N2)C2═CC═C(Cl)C═C2)C(Cl)(Cl)Cl)CC1]	11 ng/mL	12 ng/mL	20 ng/mL	–	–	–	–
COc1ccc(-c2nc(NCc3ccccn3)nc(C(Cl)(Cl)Cl)n2)cc1 [Cmpd 168]	755 ng/mL	338 ng/mL	898 ng/mL	–	–	–	–
COc1ccc(-c2nc(NCC3(N)CCCC3)nc(C(Cl)(Cl)Cl)n2)cc1OC [Compound 674, COC1═C(OC)C═C(C═C1)C1═NC(NCC2(N)CCCC2)═NC(═N1)C(Cl)(Cl)Cl]	8 ng/mL	6 ng/mL	18 ng/mL	–	–	–	–
CN(C)CCCNc1nc(-c2ccccc2)nc(C(Cl)(Cl)Cl)n1 [Cmpd 443]	–	–	–	0.145 µg/mL	0.043 µg/mL	0.161 µg/mL	–
COc1ccc(-c2nc(N3CCN(CCO)CC3)nc(C(Cl)(Cl)Cl)n2)c2ccccc12 [Cmpd 422]	–	–	–	0.291 µg/mL	0.073 µg/mL	0.31 µg/mL	–
CN1CCN(c2nc(-c3ccc(S(C)(=O)=O)cc3)nc(C(Cl)(Cl)Cl)n2)CC1 [Cmpd 54]	432 ng/mL	356 ng/mL	632 ng/mL	–	–	–	–
OCCN1CCN(c2nc(-c3ccc(Cl)c(Cl)c3)nc(C(Cl)(Cl)Cl)n2)CC1 [Cmpd 304]	80 ng/mL	41 ng/mL	201 ng/mL	–	–	–	–
NC1CCN(CC1)C1═NC(═NC(═N1)C(Cl)(Cl)Cl)C1═CC(Cl)═CC(Cl)═C1 [Compound 631]	–	–	–	0.291 µg/mL	0.153 µg/mL	0.219 µg/mL	–
NC1(CNc2nc(Nc3ccc(OC(F)(F)F)cc3)nc(C(Cl)(Cl)Cl)n2)CCOCC1 [Cmpd 303]	43 ng/mL	61 ng/mL	65 ng/mL	–	–	–	–
COC1═C(OC)C═C(C═C1)C1═NC(NC2CCN(CC(C)C)CC2)═NC(═N1)C(Cl)(Cl)Cl [Compound 702]	435 ng/mL	179 ng/mL	480 ng/mL	–	–	–	–
COc1cccc(-c2nc(NCc3cccnc3)nc(C(Cl)(Cl)Cl)n2)c1 [Cmpd 155]	318 ng/mL	145 ng/mL	614 ng/mL	–	–	–	–

Compound	D6 (P. falciparum D6; SYBR Green Assay)	W2 (P. falciparum W2; SYBR Green Assay)	C235 (P. falciparum C235; SYBR Green Assay)	D6 (SYBR Green Assay IC50) (P. falciparum D6)	W2 (SYBR Green Assay IC50) (P. falciparum W2)	C235 (SYBR Green Assay IC50) (P. falciparum C235)	also measured
CC1(C)C=Cc2cc(-c3nc(NCCN4CCCC4)nc(C(Cl)(Cl)Cl)n3)ccc2O1 [Cmpd 553]	–	–	–	0.01863 µg/mL	0.01506 µg/mL	0.01596 µg/mL	–
CSc1ccc(-c2nc(NC(C)(C)CN)nc(C(Cl)(Cl)Cl)n2)cc1 [Cmpd 277]	406 ng/mL	364 ng/mL	312 ng/mL	–	–	–	–
CC(=O)Nc1cccc(Nc2nc(C(Cl)(Cl)Cl)nc(C(Cl)(Cl)Cl)n2)c1 [Compound 727, CC(═O)Nc1cccc(Nc2nc(nc(n2)C(Cl)(Cl)Cl)C(Cl)(Cl)Cl)c1]	256 ng/mL	131 ng/mL	319 ng/mL	–	–	–	–
CC1(C)C=Cc2cc(-c3nc(NCCc4cnccn4)nc(C(Cl)(Cl)Cl)n3)ccc2O1 [Cmpd 545]	–	–	–	0.338 µg/mL	0.147 µg/mL	0.3 µg/mL	–
CN1CCC(Nc2nc(-c3ccccc3[N+](=O)[O-])nc(C(Cl)(Cl)Cl)n2)CC1 [Cmpd 550]	–	–	–	0.04805 µg/mL	0.02059 µg/mL	0.03585 µg/mL	–
COC1═C2C═CC═CC2═C(C═C1)C1═NC(NC2CCN(CC(C)C)CC2)═NC(═N1)C(Cl)(Cl)Cl [Compound 703]	324 ng/mL	237 ng/mL	338 ng/mL	–	–	–	–
Oc1ccc(Nc2nc(NCCN3CCCC3)nc(C(Cl)(Cl)Cl)n2)cc1 [Compound 745, 4-((4-((2-(pyrrolidin-1-yl)ethyl)amino)-6-(trichloromethyl)-1,3,5-triazin-2-yl)amino)phenol]	–	–	–	–	–	–	IC50 (P. falciparum D6; [1]): 0.144 µg/mL (≈ 0.345 µM); IC50 (P. falciparum W2; [1]): 0.08 µg/mL (≈ 0.192 µM); IC50 (P. falciparum C235; [1]): 0.389 µg/mL (≈ 0.931 µM)
NC1CCN(c2nc(-c3ccc(Cl)cc3)nc(C(Cl)(Cl)Cl)n2)CC1 [Compound 630, NC1CCN(CC1)C1═NC(═NC(═N1)C(Cl)(Cl)Cl)C1═CC═C(Cl)C═C1]	–	–	–	0.012 µg/mL	0.01 µg/mL	0.013 µg/mL	–
O=[N+]([O-])c1ccccc1-c1nc(N2CCCN(CCO)CC2)nc(C(Cl)(Cl)Cl)n1 [Cmpd 552]	–	–	–	0.1704 µg/mL	0.07605 µg/mL	0.1756 µg/mL	–
CSC1═CC═C(C═C1)C1═NC(═NC(═N1)C(Cl)(Cl)Cl)N1CCC(N)CC1 [Compound 626]	–	–	–	0.018 µg/mL	0.007 µg/mL	0.011 µg/mL	–
NC1(CNc2nc(-c3cccc(C(F)(F)F)c3)nc(C(Cl)(Cl)Cl)n2)CC1 [Compound 682, NC1(CNC2═NC(═NC(═N2)C2═CC(═CC═C2)C(F)(F)F)C(Cl)(Cl)Cl)CC1]	68 ng/mL	31 ng/mL	82 ng/mL	–	–	–	–
CC(C)N1CCC(CNc2nc(-c3ccc(C(Cl)(Cl)Cl)cc3)nc(C(Cl)(Cl)Cl)n2)CC1 [Cmpd 492]	–	–	–	0.095 µg/mL	0.033 µg/mL	0.052 µg/mL	–
ClC(Cl)(Cl)c1nc(-c2ccc(-c3ccccc3)cc2)nc(N2CCCNCC2)n1 [Cmpd 198]	64 ng/mL	40 ng/mL	70 ng/mL	–	–	–	–
CCN1CCCC(Nc2nc(-c3cc(OC)cc(OC)c3)nc(C(Cl)(Cl)Cl)n2)C1 (stereo not drawn) [Cmpd 528]	–	–	–	0.035 µg/mL	0.023 µg/mL	0.033 µg/mL	–
COc1cc(OC)cc(-c2nc(NCC3(N)CCOCC3)nc(C(Cl)(Cl)Cl)n2)c1 [Cmpd 529]	–	–	–	0.059 µg/mL	0.055 µg/mL	0.055 µg/mL	–
CC(C)(C)c1ccc(cc1)c2nc(NCC(C)(C)CN3CCCCCC3)nc(n2)C(Cl)(Cl)Cl [Compound 737]	241.3 ng/mL	101.3 ng/mL	244.2 ng/mL	–	–	–	–
CN1CCC(CNc2nc(-c3ccc(Cl)c(Cl)c3)nc(C(Cl)(Cl)Cl)n2)CC1 [Cmpd 505]	–	–	–	0.029 µg/mL	0.017 µg/mL	0.02 µg/mL	–
CCN1CCCC(Nc2nc(-c3ccc(N4CCCC4)cc3)nc(C(Cl)(Cl)Cl)n2)C1 (stereo not drawn) [Cmpd 429]	–	–	–	0.791 µg/mL	0.607 µg/mL	0.912 µg/mL	–
COc1ccc(Nc2nc(NCCC3CCCN3C)nc(C(Cl)(Cl)Cl)n2)cn1 (stereo not drawn) [Cmpd 341]	7 ng/mL	5 ng/mL	10 ng/mL	–	–	–	–
